Key:
3D Huh7 spheroids = assay: Lipid accumulation (AdipoRed) in 3D Huh7 spheroid culture under metabolic NASH stimulus; assay type: cell-based; settings: Elafibranor 3 μM alone, Day 7
Description: Cryopreserved Huh7 were purchased from ECACC. Cells were grown in ULA plates (Costar), William's medium (Sigma) containing 10% FBS (Gibco) at 37° C. in a humidified 5% CO2 cell culture incubator. Cells aggregated and formed spheroids within 5 days.
(§1) For these experiments, a checkerboard matrix was generated. ELA and component (ii) stocks were serially diluted in DMSO in 2-points series in a row (ELA) and a 3-points series in a column (component (ii)) of a 96-well plate. Subsequently, the 2×3 combination matrix was generated by 1:1 mixing of all single agent concentrations.
3D Huh7 spheroids were cultured under standard conditions, as described above. They were then deprived for 24 hours in serum-free medium. For the treatments with ELA, component (ii) and the respective ELA/component (ii) combinations, the serum-deprived spheroids were treated with both a metabolic NASH stimulus and the compounds (Day 0) followed by the renewal of the metabolic NASH stimulus and the compounds at Day 4 for an additional 3 days period. The spheroids were stained for lipid accumulation at Day 7.
Intracellular lipid accumulation was quantified using the ADIPORED Assay Reagent (Lonza). Spheroids were subjected to fluorescence assay quantification at λexc: 485 nm and λem: 572 nm, using fluorescence plate reader (TECAN).

[1] = tested on: fibrosing NASH-model of rats fed a CDAA+1% cholesterol diet; assay: Chronic CDAA+1% cholesterol rat model: hepatic collagen content (hydroxyproline); assay type: in vivo, Wistar rats; settings: GFT505 3 mg/kg/d, OCA 10 mg/kg/d, alone or combined; 12 weeks in diet
Description: The preventive effects of Elafibranor alone, OCA alone and the combination of both were assessed in a fibrosing NASH-model of rats fed a CDAA+1% cholesterol diet. 150-175 g male Wistar rats were fed a control (CSAA) diet, CDAA+1% cholesterol diet, or CDAA+1% cholesterol diet supplemented with Elafibranor 1, 3 and 10 mg/kg/day, OCA 10 and 30 mg/kg/day or combined drugs (Elafibranor 1, 3 and 10 mg/kg/day combined to OCA 10 mg/kg/day) for 12 weeks.
The body weight and the food intake were monitored twice per week. On the last day of treatment, rats were sacrificed after a 6 h fasting period. The liver was rapidly excised for biochemical and histological studies.
The hepatic collagen content was determined using the appropriate QuickZyme kit (Total collagen assay, cat #QZB-totcol2). The assay is based on the detection of hydroxyproline, which is a non-proteinogenic amino acid mainly found in the triple helix of collagen. Thus, hydroxyproline in tissue hydrolysates can be used as a direct measure of the amount of collagen present in the tissue (without discrimination between procollagen, mature collagen and collagen degradation products).
Complete hydrolysis of tissue samples in 6M HCl at 95° C. is required before dosing the hydroxyproline. The assay results in the generation of a chromogen with a maximum absorbance at 570 nm. Results are expressed as mg of collagen/g of liver.

HepG2 = assay: Intracellular lipid droplets (AdipoRed) in fat-loaded HepG2; assay type: cell-based, human; settings: elafibranor 10 μM alone; FFA-treated
Description: The human hepatocyte carcinoma were cultured in DMEM 4.5 g/L glucose (Gibco cat #31053 that was supplemented with 10% fetal bovine serum (FBS, Gibco cat #10270), 1% penicillin/streptomycin (Gibco cat #15140), 1% MEM NEAA (Gibco cat #11140), 1% L-Glutamine (Gibco cat #25030), and 1% Sodium Pyruvate (Gibco cat #11360).
as §1, with “component” for “component (ii)”, “5-points” for “2-points”, “11-points” for “3-points”, “(component)” for “(component (ii))”, “384-well” for “96-well”, “5×11” for “2×3”
Oleic (#O1383) and palmitic (P0500) acids were purchased at Sigma. FFA stock solutions (100 mM) were prepared in 0.1M NaOH at 80° C. Working solutions of 4.5 mM palmitate/10% bovine serum albumin (BSA) and 9 mM oleate/10% BSA were prepared by complexing an appropriate volume of stock solution to 10% BSA (FFA-free low endotoxin; Sigma-Aldrich, Bornem, Belgium) in a 55° C. water bath (15 min). […]
To measure intracellular lipid droplets content, the cells were brought to room temperature and washed with 40 μL PBS. […] The relative fluorescence was measured (k excitation at 485 nm, k emission at 580 nm) using a fluorescence spectrometer (Spark Tecan cat #30086376 SN #1801002745). […]

1-[4-methylthiophenyl]-3-[3,5-dimethyl-4-carboxydimethylmethyloxyphenyl]prop-2-en-1-one [Elafibranor]
reduction of fat content (3D Huh7 spheroids): 12% | Hepatic collagen content, percentage over the untreated CDAA + 1% cholesterol rats [1]: 45% ± 12% | reduction of fat accumulation (HepG2): 20%

Reference: patent US11478440B2, “Combination of Elafibranor or derivatives thereof with an anti-NASH, anti-fibrotic or anti-cholestatic agent” (GENFIT, priority 2017, dated 2022)
